Values quoted from earlier work, collected in PubChem BioAssay AID1259409 (Chemical Carcinogenesis Research Information System (CCRIS), 2018).

System: rodent chemically induced tumor inhibition, incidence and multiplicity
Assay: CCRIS tumor inhibitor studies
Details: Dose [Inhibitor]: 0

In the case of `C[C@]12CCCCC1=CC[C@@H]1[C@@H]2CC[C@]2(C)C(=O)[C@H](F)C[C@@H]12`, the “tumour outcome (control, treated, inhibition, significance)” value (Carcinogen: 7,12-DIMETHYLBENZ[A]ANTHRACENE, 57-97-6, 200 UG IN 0.2 ML ACETONE 3/WK 1 HR BEFORE PROMOTER ON 2 D AND ALONE ON 1 D BEGINNING 18 D POST CARCINOGEN AND CONTINU, Route [Inhibitor]: DERMAL, Species: MOUSE, Strain/Sex: CD-1/FEMALE, Target Tissue: Type of Lesion: SKIN: PAPILLOMA, Dose [Carcinogen]: 200 NMOL IN 0.2 ML ACETONE ONCE AND MICE KEPT IN DARKENED ROOM FOR 48 HR POST INITIATION, Promoter: 12-O-TETRADECANOYLPHORBOL-13-ACETATE, 16561-29-8) is listed as 92%, 70%, 24%, not calculated, the “tumour outcome (control, treated, inhibition, significance)” value (Carcinogen: AZOXYMETHANE, 25843-45-2, 200 PPM IN DIET BEGINNING PRIOR TO CARCINOGEN DOSE AND CONTINUING FOR DURATION OF STUDY (STUDY DURATION: 54 WK), Route [Inhibitor]: ORAL, Species: RAT, Strain/Sex: F344/MALE, Target Tissue: Type of Lesion: COLON: ADENOCARCINOMA, Dose [Carcinogen]: 15 MG/KG 1/WK FOR 2 WK, Promoter: NONE USED) is listed as 72%, 50%, 31%, p<0.05 and the “tumour outcome (control, treated, inhibition, significance)” value (Carcinogen: AZOXYMETHANE, 25843-45-2, 200 PPM IN DIET BEGINNING PRIOR TO CARCINOGEN DOSE AND CONTINUING FOR DURATION OF STUDY (STUDY DURATION: 54 WK), Route [Inhibitor]: ORAL, Species: RAT, Strain/Sex: F344/MALE, Target Tissue: Type of Lesion: COLON: ADENOMA, Dose [Carcinogen]: 15 MG/KG 1/WK FOR 2 WK, Promoter: NONE USED) is listed as 14%, 8%, 43%, not calculated. For the same compound, the “tumour outcome (control, treated, inhibition, significance)” value (Carcinogen: AZOXYMETHANE, 25843-45-2, 200 PPM IN DIET BEGINNING PRIOR TO CARCINOGEN DOSE AND CONTINUING FOR DURATION OF STUDY (STUDY DURATION: 54 WK), Route [Inhibitor]: ORAL, Species: RAT, Strain/Sex: F344/MALE, Target Tissue: Type of Lesion: SMALL INTESTINE: ADENOCARCINOMA, Dose [Carcinogen]: 15 MG/KG 1/WK FOR 2 WK, Promoter: NONE USED) was 50%, 28%, 44%, not calculated, the “tumour outcome (control, treated, inhibition, significance)” value (Carcinogen: AZOXYMETHANE, 25843-45-2, 200 PPM IN DIET BEGINNING PRIOR TO CARCINOGEN DOSE AND CONTINUING FOR STUDY DURATION (STUDY DURATION: 54 WK), Route [Inhibitor]: ORAL, Species: RAT, Strain/Sex: F344/MALE, Target Tissue: Type of Lesion: SMALL INTESTINE: ADENOMA, Dose [Carcinogen]: 15 MG/KG 1/WK FOR 2 WK, Promoter: NONE USED) was 3%, 0%, 100%, not calculated and the “tumour outcome (control, treated, inhibition, significance)” value (Carcinogen: AZOXYMETHANE, 25843-45-2, 400 PPM IN DIET BEGINNING PRIOR TO CARCINOGEN DOSE AND CONTINUING FOR DURATION OF STUDY (STUDY DURATION: 54 WK), Route [Inhibitor]: ORAL, Species: RAT, Strain/Sex: F344/MALE, Target Tissue: Type of Lesion: COLON: ADENOCARCINOMA, Dose [Carcinogen]: 15 MG/KG 1/WK FOR 2 WK, Promoter: NONE USED) was 72%, 61%, 15%, not calculated. For the same compound, the “tumour outcome (control, treated, inhibition, significance)” value (Carcinogen: AZOXYMETHANE, 25843-45-2, 400 PPM IN DIET BEGINNING PRIOR TO CARCINOGEN DOSE AND CONTINUING FOR DURATION OF STUDY (STUDY DURATION: 54 WK), Route [Inhibitor]: ORAL, Species: RAT, Strain/Sex: F344/MALE, Target Tissue: Type of Lesion: COLON: ADENOMA, Dose [Carcinogen]: 15 MG/KG 1/WK FOR 2 WK, Promoter: NONE USED) was 14%, 6%, 57%, not calculated, the “tumour outcome (control, treated, inhibition, significance)” value (Carcinogen: AZOXYMETHANE, 25843-45-2, 400 PPM IN DIET BEGINNING PRIOR TO CARCINOGEN DOSE AND CONTINUING FOR DURATION OF STUDY (STUDY DURATION: 54 WK), Route [Inhibitor]: ORAL, Species: RAT, Strain/Sex: F344/MALE, Target Tissue: Type of Lesion: SMALL INTESTINE: ADENOCARCINOMA, Dose [Carcinogen]: 15 MG/KG 1/WK FOR 2 WK, Promoter: NONE USED) was 50%, 17%, 66%, p<0.01 and the “tumour outcome (control, treated, inhibition, significance)” value (Carcinogen: AZOXYMETHANE, 25843-45-2, 400 PPM IN DIET BEGINNING PRIOR TO CARCINOGEN DOSE AND CONTINUING FOR DURATION OF STUDY (STUDY DURATION: 54 WK), Route [Inhibitor]: ORAL, Species: RAT, Strain/Sex: F344/MALE, Target Tissue: Type of Lesion: SMALL INTESTINE: ADENOMA, Dose [Carcinogen]: 15 MG/KG 1/WK FOR 2 WK, Promoter: NONE USED) was 3%, 0%, 100%, not calculated. The “tumour outcome (control, treated, inhibition, significance)” value (Carcinogen: N-METHYL-N-NITROSOUREA, 684-93-5, 0.1% IN DIET FOR DURATION OF STUDY BEGINNING 1 WK PRIOR TO CARCINOGEN DOSE (STUDY DURATION: 187 D), Route [Inhibitor]: ORAL, Species: RAT, Strain/Sex: SPRAGUE-DAWLEY/FEMALE, Target Tissue: Type of Lesion: MAMMARY GLAND: CARCINOMA, Dose [Carcinogen]: 50 MG/KG ONCE AT 50 D OF AGE, Promoter: NONE USED) was 100%, 100%, 0%, not significant, the “tumour outcome (control, treated, inhibition, significance)” value (Carcinogen: N-METHYL-N-NITROSOUREA, 684-93-5, 0.2% IN DIET FOR 2 WK BEGINNING 1 WK PRIOR TO CARCINOGEN DOSE (STUDY DURATION: 187 D), Route [Inhibitor]: ORAL, Species: RAT, Strain/Sex: SPRAGUE-DAWLEY/FEMALE, Target Tissue: Type of Lesion: MAMMARY GLAND: CARCINOMA, Dose [Carcinogen]: 50 MG/KG ONCE AT 50 D OF AGE, Promoter: NONE USED) was 100%, 100%, 0%, not significant and the “tumour outcome (control, treated, inhibition, significance)” value (Carcinogen: N-METHYL-N-NITROSOUREA, 684-93-5, 0.2% IN DIET FOR DURATION OF STUDY BEGINNING 1 WK POST CARCINOGEN DOSE (STUDY DURATION: 180 D), Route [Inhibitor]: ORAL, Species: RAT, Strain/Sex: SPRAGUE-DAWLEY/FEMALE, Target Tissue: Type of Lesion: MAMMARY GLAND: CARCINOMA, Dose [Carcinogen]: 50 MG/KG ONCE AT 50 D OF AGE, Promoter: NONE USED) was 100%, 95%, 5%, not significant. The “tumour outcome (control, treated, inhibition, significance)” value (Carcinogen: N-METHYL-N-NITROSOUREA, 684-93-5, 0.2% IN DIET FOR DURATION OF STUDY BEGINNING 1 WK PRIOR TO CARCINOGEN DOSE (STUDY DURATION: 187 D), Route [Inhibitor]: ORAL, Species: RAT, Strain/Sex: SPRAGUE-DAWLEY/FEMALE, Target Tissue: Type of Lesion: MAMMARY GLAND: CARCINOMA, Dose [Carcinogen]: 50 MG/KG ONCE AT 50 D OF AGE, Promoter: NONE USED) was 100%, 100%, 0%, not significant.
In the case of `CCCCC/C=C\C/C=C\CCCCCCCC(=O)O`, the “tumour outcome (control, treated, inhibition, significance)” value (Carcinogen: BENZO[A]PYRENE, 50-32-8, 0.1 ML IN 0.1 ML OLIVE OIL 4 AND 2 D PRIOR TO CARCINOGEN DOSE (CYCLE REPEATED 4 X) (STUDY DURATION: 23 WK), Route [Inhibitor]: GAVAGE, Species: MOUSE, Strain/Sex: ICR/FEMALE, Target Tissue: Type of Lesion: STOMACH: PAPILLOMA, Dose [Carcinogen]: 2 MG IN 0.2 ML OLIVE OIL 1/WK FOR 4 WK) is listed as 100%, 90%, 10%, not calculated.
